Reference: ChEMBL document CHEMBL5321270, “Discovery of Pyrazolone Carbothioamide Derivatives as Inhibitors of the Pdr1-KIX Interaction for Combinational Treatment of Azole-Resistant Candidiasis” (J Med Chem, 2023)
In brackets after ≈: the same amount, converted by molar mass. Activity calls are given as the source filed them. No cut-off for these calls is given here.

How the values were obtained:
[1] = Inhibition of fluorescent probe FITC tagged PDR1-KIX domain (unknown origin) protein-protein interaction assessed as inhibition constant incubated for 2 hrs by fluorescence polarization binding assay
[2] = test system: Nakaseomyces glabratus; test: Antifungal activity against fluconazole-resistant Candida glabrata 0161 assessed as fungal growth inhibition incubated for 48 hrs by microplate reader assay; assay type: functional
[3] = test system: Nakaseomyces glabratus; test: Antifungal activity against fluconazole-resistant Candida glabrata 0161 assessed as fractional inhibitory concentration incubated for 48 hrs in presence of fluconazole by microplate reader assay; assay type: functional
[4] = test system: Nakaseomyces glabratus; test: Antifungal activity against fluconazole-resistant Candida glabrata 0161 assessed as fluconazole fractional inhibitory concentration incubated for 48 hrs in presence of fluconazole by microplate reader assay; assay type: functional
[5] = test system: Nakaseomyces glabratus; test: Synergistic antifungal activity against fluconazole-resistant Candida glabrata 0161 assessed as fractional inhibitory concentration index incubated for 48 hrs in presence of fluconazole by checkerboard microdilution method; assay type: functional
[6] = test system: Nakaseomyces glabratus; test: Antifungal activity against fluconazole-sensitive Candida glabrata 7669 assessed as fungal growth inhibition incubated for 48 hrs by microplate reader assay; assay type: functional, organism-based
[7] = test system: Nakaseomyces glabratus; test: Antifungal activity against fluconazole-resistant Candida glabrata 9256 assessed as fungal growth inhibition incubated for 48 hrs by microplate reader assay; assay type: functional
[8] = test system: Nakaseomyces glabratus; test: Antifungal activity against fluconazole-resistant Candida glabrata 8535 assessed as fungal growth inhibition incubated for 48 hrs by microplate reader assay; assay type: functional
[9] = test system: Candida albicans; test: Antifungal activity against Candida albicans 103 assessed as fungal growth inhibition incubated for 48 hrs by microplate reader assay; assay type: functional, organism-based
[10] = test system: Candida albicans; test: Antifungal activity against Candida albicans 5314 assessed as fungal growth inhibition incubated for 48 hrs by microplate reader assay; assay type: functional, organism-based
[11] = test system: Candida albicans; test: Antifungal activity against Candida albicans 0029 assessed as fungal growth inhibition incubated for 48 hrs by microplate reader assay; assay type: functional, organism-based
[12] = test system: Candida albicans; test: Antifungal activity against Candida albicans assessed as fungal growth inhibition incubated for 48 hrs by microplate reader assay; assay type: functional
[13] = test system: Candida tropicalis; test: Antifungal activity against Candida tropicalis 10186 assessed as fungal growth inhibition incubated for 48 hrs by microplate reader assay; assay type: functional
[14] = test system: Candida parapsilosis; test: Antifungal activity against Candida parapsilosis 20090 assessed as fungal growth inhibition incubated for 48 hrs by microplate reader assay; assay type: functional; details: Lodderomyces parapsilosis
[15] = test system: [Candida] auris; test: Antifungal activity against Candida auris 0030 assessed as fungal growth inhibition incubated for 48 hrs by microplate reader assay; assay type: functional; details: Candidozyma auris
[16] = test system: [Candida] auris; test: Antifungal activity against Candida auris 15448 assessed as fungal growth inhibition incubated for 48 hrs by microplate reader assay; assay type: functional; details: Candidozyma auris
[17] = test system: Aspergillus fumigatus; test: Antifungal activity against Aspergillus fumigatus 7544 assessed as fungal growth inhibition incubated for 48 hrs by microplate reader assay; assay type: functional
[18] = test system: Nannizzia gypsea; test: Antifungal activity against Microsporum gypseum assessed as fungal growth inhibition incubated for 48 hrs by microplate reader assay; assay type: functional
[19] = test system: Trichophyton rubrum; test: Antifungal activity against Trichophyton rubrum assessed as fungal growth inhibition incubated for 48 hrs by microplate reader assay; assay type: functional
[20] = test system: Cryptococcus neoformans; test: Antifungal activity against Cryptococcus neoformans H99 assessed as fungal growth inhibition incubated for 48 hrs by microplate reader assay; assay type: functional

N#CCC(=O)NNC(=S)Nc1ccc2c(c1)CCC2
Ki [1]: 256 µM
MIC [2]: 16 µg/mL (≈ 58.3 µM)
FIC [3]: 8 µg/mL
fluconazole MIC in combination [4]: 1 µg/mL
fractional inhibitory concentration index (FICI) [5]: 0.53
Activity [6]: inactive
Activity [7]: inactive
Activity [8]: inactive
Activity [9]: inactive
Activity [10]: inactive
Activity [11]: inactive

Nc1cc(=O)n(C(=S)Nc2ccc(I)cc2)[nH]1
Ki [1]: 137 µM
MIC [2]: 0.25 µg/mL (≈ 0.694 µM)
FIC [3]: 0.13 µg/mL
fluconazole MIC in combination [4]: 0.25 µg/mL
fractional inhibitory concentration index (FICI) [5]: 0.53
MIC [7]: 0.25 µg/mL (≈ 0.694 µM)
MIC [8]: 0.25 µg/mL (≈ 0.694 µM)
MIC [12]: 4 µg/mL (≈ 11.1 µM)
MIC [13]: 4 µg/mL (≈ 11.1 µM)
MIC [14]: 4 µg/mL (≈ 11.1 µM)
MIC [15]: 2 µg/mL (≈ 5.55 µM)
MIC [16]: 2 µg/mL (≈ 5.55 µM)
MIC [17]: 16 µg/mL (≈ 44.4 µM)
MIC [18]: 1 µg/mL (≈ 2.78 µM)
MIC [19]: 1 µg/mL (≈ 2.78 µM)
MIC [20]: 0.063 µg/mL (≈ 0.175 µM)

N#CCC(=O)NNC(=S)Nc1ccc(N2CCOCC2)cc1
Ki [1]: 622 µM
MIC [2]: 16 µg/mL (≈ 50.1 µM)
FIC [3]: 8 µg/mL
fluconazole MIC in combination [4]: 0.5 µg/mL
fractional inhibitory concentration index (FICI) [5]: 0.52
Activity [6]: inactive
Activity [7]: inactive
Activity [8]: inactive
Activity [9]: inactive
Activity [10]: inactive
Activity [11]: inactive

N#CCC(=O)NNC(=O)Nc1cccc(Cl)c1
Ki [1]: 119 µM
MIC [2]: > 64 µg/mL
FIC [3]: 2 µg/mL
fluconazole MIC in combination [4]: 16 µg/mL
fractional inhibitory concentration index (FICI) [5]: 0.53
Activity [6]: inactive
Activity [7]: inactive
Activity [8]: inactive
Activity [9]: inactive
Activity [10]: inactive
Activity [11]: inactive

N#CCC(=O)NNC(=S)Nc1ccccc1Cl
Ki [1]: 175 µM
MIC [2]: 32 µg/mL (≈ 119 µM)
FIC [3]: 16 µg/mL
fluconazole MIC in combination [4]: 2 µg/mL
fractional inhibitory concentration index (FICI) [5]: 0.56
Activity [6]: inactive
Activity [7]: inactive
Activity [8]: inactive
Activity [9]: inactive
Activity [10]: inactive
Activity [11]: inactive

N#CCC(=O)NNC(=S)Nc1ccc(Cl)cc1Cl
Ki [1]: 37.3 µM
MIC [2]: 16 µg/mL (≈ 52.8 µM)
FIC [3]: 8 µg/mL
fluconazole MIC in combination [4]: 2 µg/mL
fractional inhibitory concentration index (FICI) [5]: 0.56
Activity [6]: inactive
Activity [7]: inactive
Activity [8]: inactive
Activity [9]: inactive
Activity [10]: inactive
Activity [11]: inactive

Cc1ccc(NC(=S)NNC(=O)CC#N)cc1
Ki [1]: 476 µM
MIC [2]: 64 µg/mL (≈ 258 µM)
FIC [3]: 2 µg/mL
fluconazole MIC in combination [4]: 16 µg/mL
fractional inhibitory concentration index (FICI) [5]: 0.53
Activity [6]: inactive
Activity [7]: inactive
Activity [8]: inactive
Activity [9]: inactive
Activity [10]: inactive
Activity [11]: inactive

N#CCC(=O)NNC(=S)Nc1cccc(Cl)c1Cl
Ki [1]: 37.1 µM
MIC [2]: 16 µg/mL (≈ 52.8 µM)
FIC [3]: 8 µg/mL
fluconazole MIC in combination [4]: 2 µg/mL
fractional inhibitory concentration index (FICI) [5]: 0.56
Activity [6]: inactive
Activity [7]: inactive
Activity [8]: inactive
Activity [9]: inactive
Activity [10]: inactive
Activity [11]: inactive

Nc1cc(=O)n(C(=S)Nc2ccc(Cl)nc2)[nH]1
Ki [1]: 144 µM
MIC [2]: 0.5 µg/mL (≈ 1.85 µM)
FIC [3]: 0.25 µg/mL
fluconazole MIC in combination [4]: 0.5 µg/mL
fractional inhibitory concentration index (FICI) [5]: 0.52
MIC [7]: 0.25 µg/mL (≈ 0.927 µM)
MIC [8]: 0.25 µg/mL (≈ 0.927 µM)
MIC [12]: 4 µg/mL (≈ 14.8 µM)
MIC [13]: 4 µg/mL (≈ 14.8 µM)
MIC [14]: 4 µg/mL (≈ 14.8 µM)
MIC [15]: 2 µg/mL (≈ 7.42 µM)
MIC [16]: 2 µg/mL (≈ 7.42 µM)
MIC [17]: 16 µg/mL (≈ 59.3 µM)
MIC [18]: 1 µg/mL (≈ 3.71 µM)
MIC [19]: 1 µg/mL (≈ 3.71 µM)
MIC [20]: 0.063 µg/mL (≈ 0.234 µM)

Nc1cc(=O)n(C(=S)Nc2cccc(Cl)c2Cl)[nH]1
Ki [1]: 27.2 µM
MIC [2]: 0.25 µg/mL (≈ 0.825 µM)
FIC [3]: 0.063 µg/mL
fluconazole MIC in combination [4]: 2 µg/mL
fractional inhibitory concentration index (FICI) [5]: 0.31
MIC [7]: 0.25 µg/mL (≈ 0.825 µM)
MIC [8]: 0.25 µg/mL (≈ 0.825 µM)
MIC [12]: 4 µg/mL (≈ 13.2 µM)
MIC [13]: 4 µg/mL (≈ 13.2 µM)
MIC [14]: 4 µg/mL (≈ 13.2 µM)
MIC [15]: 2 µg/mL (≈ 6.6 µM)
MIC [16]: 2 µg/mL (≈ 6.6 µM)
MIC [17]: 16 µg/mL (≈ 52.8 µM)
MIC [18]: 1 µg/mL (≈ 3.3 µM)
MIC [19]: 1 µg/mL (≈ 3.3 µM)
MIC [20]: 0.063 µg/mL (≈ 0.208 µM)

Nc1cc(=O)n(C(=S)Nc2ccccc2Cl)[nH]1
Ki [1]: 85.8 µM
MIC [2]: 0.5 µg/mL (≈ 1.86 µM)
FIC [3]: 0.13 µg/mL
fluconazole MIC in combination [4]: 16 µg/mL
fractional inhibitory concentration index (FICI) [5]: 0.76
MIC [7]: 0.25 µg/mL (≈ 0.93 µM)
MIC [8]: 0.25 µg/mL (≈ 0.93 µM)
MIC [12]: 4 µg/mL (≈ 14.9 µM)
MIC [13]: 4 µg/mL (≈ 14.9 µM)
MIC [14]: 4 µg/mL (≈ 14.9 µM)
MIC [15]: 2 µg/mL (≈ 7.44 µM)
MIC [16]: 2 µg/mL (≈ 7.44 µM)
MIC [17]: 16 µg/mL (≈ 59.5 µM)
MIC [18]: 1 µg/mL (≈ 3.72 µM)
MIC [19]: 1 µg/mL (≈ 3.72 µM)
MIC [20]: 0.063 µg/mL (≈ 0.234 µM)

N#CCC(=O)NNC(=S)Nc1ccc(Cl)nc1
Ki [1]: 54.9 µM
MIC [2]: 32 µg/mL (≈ 119 µM)
FIC [3]: 4 µg/mL
fluconazole MIC in combination [4]: 8 µg/mL
fractional inhibitory concentration index (FICI) [5]: 0.38
Activity [6]: inactive
Activity [7]: inactive
Activity [8]: inactive
Activity [9]: inactive
Activity [10]: inactive
Activity [11]: inactive

N#CCC(=O)NNC(=O)Nc1ccc(Cl)cc1
Ki [1]: 275 µM
MIC [2]: 64 µg/mL (≈ 253 µM)
FIC [3]: 4 µg/mL
fluconazole MIC in combination [4]: 16 µg/mL
fractional inhibitory concentration index (FICI) [5]: 0.56
Activity [6]: inactive
Activity [7]: inactive
Activity [8]: inactive
Activity [9]: inactive
Activity [10]: inactive
Activity [11]: inactive

N#CCC(=O)NNC(=S)Nc1ccc(I)cc1
Ki [1]: 153 µM
MIC [2]: 16 µg/mL (≈ 44.4 µM)
FIC [3]: 2 µg/mL
fluconazole MIC in combination [4]: 4 µg/mL
fractional inhibitory concentration index (FICI) [5]: 0.25
Activity [6]: inactive
Activity [7]: inactive
Activity [8]: inactive
Activity [9]: inactive
Activity [10]: inactive
Activity [11]: inactive

COc1ccc(NC(=S)NNC(=O)CC#N)cc1
Ki [1]: 348 µM
MIC [2]: > 64 µg/mL
FIC [3]: 2 µg/mL
fluconazole MIC in combination [4]: 16 µg/mL
fractional inhibitory concentration index (FICI) [5]: 0.53
Activity [6]: inactive
Activity [7]: inactive
Activity [8]: inactive
Activity [9]: inactive
Activity [10]: inactive
Activity [11]: inactive

N#CCC(=O)NNC(=S)Nc1ccc2[nH]ccc2c1
Ki [1]: 470 µM
MIC [2]: > 64 µg/mL
FIC [3]: 2 µg/mL
fluconazole MIC in combination [4]: 16 µg/mL
fractional inhibitory concentration index (FICI) [5]: 0.53
Activity [6]: inactive
Activity [7]: inactive
Activity [8]: inactive
Activity [9]: inactive
Activity [10]: inactive
Activity [11]: inactive

N#CCC(=O)NNC(=S)Nc1ccc(Cl)cc1
Ki [1]: 139 µM
MIC [2]: 64 µg/mL (≈ 238 µM)
FIC [3]: 2 µg/mL
fluconazole MIC in combination [4]: 16 µg/mL
fractional inhibitory concentration index (FICI) [5]: 0.53
Activity [6]: inactive
Activity [7]: inactive
Activity [8]: inactive
Activity [9]: inactive
Activity [10]: inactive
Activity [11]: inactive
